Source: patent US8017612B2, “Piperazine compound and use thereof as a HCV polymerase inhibitor” (priority 2006, dated 2011)

Experiments:
[1] = molecular target: T1, HCV polymerase (NS5B) type 1b (Hepatitis C virus genotype 1b, UniProt P26663); assay: Assay of enzyme (HCV polymerase) inhibitory activity, type 1b enzyme; format: biochemical, HCV BK strain (type 1b); conditions: HCV polymerase inhibitory activity (IC50), 1b, type 1b enzyme 0.5 μg/ml, 25° C., 60 min
T1 construct: a region encoding NS5B (J Virol 1991 March, 65(3), 1105-13, 544 amino acids after deletion of 47 amino acids on the C-terminal); 6xHis (C); made in house; host or cells: Escherichia coli
Summary of the method: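 Rxn: NS5B 1b (BK, ΔC47, His6) 0.5 μg/ml; substrate RNA 5 μg/ml; ATP/GTP/CTP 50 μM, UTP 2 μM + [5,6-3H]UTP; 20 mM Tris pH 7.5, 5 mM MgCl2, 50 mM NaCl, 1 mM EDTA/DTT. 25 °C, 60 min. Stop with TCA/pyrophosphate, filter, scintillation count; IC50 vs. untreated.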

[2] = molecular target: T2, HCV polymerase (NS5B) type 1a (Hepatitis C virus genotype 1a, UniProt P26664); assay: Assay of enzyme (HCV polymerase) inhibitory activity, type 1a enzyme; format: biochemical, HCV type 1a (cloned from the blood of patients); conditions: HCV polymerase inhibitory activity (IC50), 1a, type 1a enzyme 1.5 μg/ml, 25° C., 60 min
T2 construct: made in house; host or cells: Escherichia coli (by the 'similar method' of the 1b enzyme)
Summary of the method: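 NS5B Δ47 C-term His6 (type 1a, 1.5 μg/ml); substrate RNA 5 μg/ml; ATP/GTP/CTP 50 μM, UTP 2 μM + [5,6-3H]UTP; Tris pH 7.5, MgCl2 5 mM; 25° C, 60 min. TCA/pyrophosphate stop, GF/B filter, scintillation. IC50 vs no-compound control.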

| SMILES | IC50 [1] | IC50 [2] |
| --- | --- | --- |
| CCC(F)(F)c1ccc(CNC(=O)[C@H]2CN(C(=O)Cc3cn(C)cn3)CCN2S(=O)(=O)c2ccc(OC(F)(F)F)cc2)cc1 [Example 498, (R)-4-[2-(1-methyl-1H-imidazol-4-yl)-acetyl]-1-(4-trifluoromethoxy-benzenesulfonyl)-piperazine-2-carboxylic acid 4-(1,1-difluoro-propyl)-benzylamide] | 0.1 to 1 µM | 0.1 to 1 µM |
| CCCc1ccc(CNC(=O)[C@H]2CN(c3nc(C)c(C(=O)O)s3)CCN2S(=O)(=O)c2ccc(OC(F)(F)F)c(CCC)c2)cc1 [Example 499, 4-methyl-2-[(R)-3-(4-propyl-benzylcarbamoyl)-4-(3-propyl-4-trifluoromethoxy-benzenesulfonyl)-piperazin-1-yl]-thiazole-5-carboxylic acid] | < 0.1 µM | < 0.1 µM |
| CC(C)(C)c1ccc(CNC(=O)[C@H]2CN(C(=O)Cc3ccncc3)CCN2S(=O)(=O)c2ccc(OC(F)(F)F)cc2)cc1 [Example 500, (R)-4-(2-pyridin-4-yl-acetyl)-1-(4-trifluoromethoxy-benzenesulfonyl)-piperazine-2-carboxylic acid 4-tert-butyl-benzylamide] | < 0.1 µM | < 0.1 µM |
| CC(C)(C)c1ccc(CNC(=O)[C@H]2CN(c3cnc(C(=O)O)cn3)CCN2S(=O)(=O)c2ccc(OC(F)(F)F)cc2)cc1 [Example 501, (R)-3-(4-tert-butyl-benzylcarbamoyl)-4-(4-trifluoromethoxy-benzenesulfonyl)-3,4,5,6-tetrahydro-2H-[1,2′]bipyrazinyl-5′-carboxylic acid] | < 0.1 µM | < 0.1 µM |
| CCC(F)(F)c1ccc(CNC(=O)[C@H]2CN(C(=O)Nc3ccnc(C(=O)O)c3)CCN2S(=O)(=O)c2ccc(OC(F)(F)F)cc2)cc1 [Example 502, 4-{[(R)-3-[4-(1,1-difluoro-propyl)-benzylcarbamoyl]-4-(4-trifluoromethoxy-benzenesulfonyl)-piperazine-1-carbonyl]-amino}-pyridine-2-carboxylic acid] | 0.1 to 1 µM | 0.1 to 1 µM |
| CCC(F)(F)c1ccc(CNC(=O)[C@H]2CN(C(=O)Nc3ccnc(C(N)=O)c3)CCN2S(=O)(=O)c2ccc(OC(F)(F)F)cc2)cc1 [Example 503, (R)-4-(4-trifluoromethoxy-benzenesulfonyl)-piperazine-1,3-dicarboxylic acid 1-[(2-carbamoyl-pyridin-4-yl)-amide] 3-[4-(1,1-difluoro-propyl)-benzylamide]] | < 0.1 µM | 0.1 to 1 µM |
| CCC(F)(F)c1ccc(CNC(=O)[C@H]2CN(C(=O)Nc3ccnc(C(=O)N(C)C)c3)CCN2S(=O)(=O)c2ccc(OC(F)(F)F)cc2)cc1 [Example 504, (R)-4-(4-trifluoromethoxy-benzenesulfonyl)-piperazine-1,3-dicarboxylic acid 3-[4-(1,1-difluoro-propyl)-benzylamide] 1-[(2-dimethylcarbamoyl-pyridin-4-yl)-amide]] | < 0.1 µM | < 0.1 µM |
| CCCc1ccc(CNC(=O)[C@H]2CN(c3nc(C)c(CN(C)C)s3)CCN2S(=O)(=O)c2ccc(OC(F)(F)F)cc2)cc1 [Example 505, (R)-4-(5-dimethylaminomethyl-4-methyl-thiazol-2-yl)-1-(4-trifluoromethoxy-benzenesulfonyl)-piperazine-2-carboxylic acid 4-propyl-benzylamide] | < 0.1 µM | < 0.1 µM |
| CCCc1ccc(CNC(=O)[C@H]2CN(c3nc(C)c(CNC)s3)CCN2S(=O)(=O)c2ccc(OC(F)(F)F)cc2)cc1 [Example 506, (R)-4-(4-methyl-5-methylaminomethyl-thiazol-2-yl)-1-(4-trifluoromethoxy-benzenesulfonyl)-piperazine-2-carboxylic acid 4-propyl-benzylamide] | < 0.1 µM | < 0.1 µM |
| CCCc1ccc(CNC(=O)[C@H]2CN(c3cnc(C(=O)OC)c(N)n3)CCN2S(=O)(=O)c2ccc(OC(F)(F)F)cc2)cc1 [Example 507, (R)-6′-amino-3-(4-propyl-benzylcarbamoyl)-4-(4-trifluoromethoxy-benzenesulfonyl)-3,4,5,6-tetrahydro-2H-[1,2′]bipyrazinyl-5′-carboxylic acid methyl ester] | < 0.1 µM | < 0.1 µM |
| CCC(F)(F)c1ccc(CNC(=O)[C@H]2CN(C(=O)Cc3ccncc3)CCN2S(=O)(=O)c2ccc(OC(F)(F)F)cc2)cc1 [Example 508, (R)-4-(2-pyridin-4-yl-acetyl)-1-(4-trifluoromethoxy-benzenesulfonyl)-piperazine-2-carboxylic acid 4-(1,1-difluoro-propyl)-benzylamide] | < 0.1 µM | < 0.1 µM |
| CCCc1ccc(CNC(=O)[C@H]2CN(c3nc(C)c(C(=O)O)s3)CCN2S(=O)(=O)c2ccc(OC(F)(F)F)c(F)c2)cc1 [Example 509, 2-[(R)-4-(3-fluoro-4-trifluoromethoxy-benzenesulfonyl)-3-(4-propyl-benzylcarbamoyl)-piperazin-1-yl]-4-methyl-thiazole-5-carboxylic acid] | < 0.1 µM | < 0.1 µM |
| CCCc1ccc(CNC(=O)[C@H]2CN(c3nc(CO)cs3)CCN2S(=O)(=O)c2ccc(OC(F)(F)F)cc2)cc1 [Example 510, (R)-4-(4-hydroxymethyl-thiazol-2-yl)-1-(4-trifluoromethoxy-benzenesulfonyl)-piperazine-2-carboxylic acid 4-propyl-benzylamide] | < 0.1 µM | < 0.1 µM |
| CCC(F)(F)c1ccc(CNC(=O)[C@H]2CN(C(=O)Nc3ccnc(CO)c3)CCN2S(=O)(=O)c2ccc(OC(F)(F)F)cc2)cc1 [Example 511, (R)-4-(4-trifluoromethoxy-benzenesulfonyl)-piperazine-1,3-dicarboxylic acid 3-[4-(1,1-difluoro-propyl)-benzylamide] 1-[(2-hydroxymethyl-pyridin-4-yl)-amide]] | < 0.1 µM | < 0.1 µM |
| CCC(F)(F)c1ccc(CNC(=O)[C@H]2CN(C(=O)Nc3ccnc(C(=O)NC4CC4)c3)CCN2S(=O)(=O)c2ccc(OC(F)(F)F)cc2)cc1 [Example 512, (R)-4-(4-trifluoromethoxy-benzenesulfonyl)-piperazine-1,3-dicarboxylic acid 1-[(2-cyclopropylcarbamoyl-pyridin-4-yl)-amide] 3-[4-(1,1-difluoro-propyl)-benzylamide]] | < 0.1 µM | < 0.1 µM |
| CCC(F)(F)c1ccc(CNC(=O)[C@H]2CN(C(=O)Nc3ccnc(C(=O)N4CCOCC4)c3)CCN2S(=O)(=O)c2ccc(OC(F)(F)F)cc2)cc1 [Example 513, (R)-4-(4-trifluoromethoxy-benzenesulfonyl)-piperazine-1,3-dicarboxylic acid 3-[4-(1,1-difluoro-propyl)-benzylamide] 1-{[2-(morpholine-4-carbonyl)-pyridin-4-yl]-amide}] | < 0.1 µM | < 0.1 µM |
| CCC(F)(F)c1ccc(CNC(=O)[C@H]2CN(C(=O)Nc3ccnc(C(=O)N4CCCC4)c3)CCN2S(=O)(=O)c2ccc(OC(F)(F)F)cc2)cc1 [Example 514, (R)-4-(4-trifluoromethoxy-benzenesulfonyl)-piperazine-1,3-dicarboxylic acid 3-[4-(1,1-difluoro-propyl)-benzylamide] 1-{[2-(pyrrolidine-1-carbonyl)-pyridin-4-yl]-amide}] | < 0.1 µM | < 0.1 µM |
| CCCc1ccc(CNC(=O)[C@H]2CN(c3cnc(C(=O)OC)c(NC(C)=O)n3)CCN2S(=O)(=O)c2ccc(OC(F)(F)F)cc2)cc1 [Example 515, (R)-6′-acetylamino-3-(4-propyl-benzylcarbamoyl)-4-(4-trifluoromethoxy-benzenesulfonyl)-3,4,5,6-tetrahydro-2H-[1,2′]bipyrazinyl-5′-carboxylic acid methyl ester] | < 0.1 µM | < 0.1 µM |
| CCCc1ccc(CNC(=O)[C@H]2CN(c3n[nH]c(=O)s3)CCN2S(=O)(=O)c2ccc(OC(F)(F)F)cc2)cc1 [Example 516, (R)-4-(5-oxo-4,5-dihydro-[1,3,4]thiadiazol-2-yl)-1-(4-trifluoromethoxy-benzenesulfonyl)-piperazine-2-carboxylic acid 4-propyl-benzylamide] | < 0.1 µM | < 0.1 µM |
| CCC(F)(F)c1ccc(CNC(=O)[C@H]2CN(C(=O)Nc3ccnc(Cl)c3)CCN2S(=O)(=O)c2ccc(OC(F)(F)F)cc2)cc1 [Example 517, (R)-4-(4-trifluoromethoxy-benzenesulfonyl)-piperazine-1,3-dicarboxylic acid 1-[(2-chloro-pyridin-4-yl)-amide] 3-[4-(1,1-difluoro-propyl)-benzylamide]] | < 0.1 µM | < 0.1 µM |
| CCC(F)(F)c1ccc(CNC(=O)[C@H]2CN(C(=O)Cc3nnn(C)n3)CCN2S(=O)(=O)c2ccc(OC(F)(F)F)cc2)cc1 [Example 518, (R)-4-[2-(2-methyl-2H-tetrazol-5-yl)-acetyl]-1-(4-trifluoromethoxy-benzenesulfonyl)-piperazine-2-carboxylic acid 4-(1,1-difluoro-propyl)-benzylamide] | < 0.1 µM | < 0.1 µM |
